Read-outs that look alike come from different tables or passages of the source.
Tests used:
[1] = Pharmacokinetic parameters after intravenous administration; type: in vivo, rat; conditions: for half-life: plasma
Method: 5. Determination of the Pharmacokinetic Parameters after Intravenous Administration
5.1. Intravenous Administration:
For this, the substances were administered in dissolved form, compatible solubilizers such as PEG400 and/or ethanol being used in tolerable quantity. The substances were administered at a dosage of 0.1-1 mg/kg. The administration was effected in the female rat as a bolus injection. Here, at various times after bolus injection ca. 100-150 μl blood samples were withdrawn from the jugular vein via a catheter. The blood samples were treated with lithium-heparin as anticoagulant and stored refrigerated until further work-up. After centrifugation of the samples for 15 mins at 3000 rpm, an aliquot of 100 μl was withdrawn from the supernatant (plasma) and precipitated by addition of 400 μl of cold acetonitrile or methanol (absolute). The precipitated samples were frozen overnight at −20° C., then centrifuged once again for 15 mins at 3000 rpm, before 150 μl of the clear supernatant was withdrawn for the concentration determination. The analysis was performed with an Agilent 1200 HPLC system with attached LCMS/MS detection.
5.2 Calculation of the PK Parameters
The calculation was performed by means of the PK calculation software WinNonLin®, where t1/2 means half-life within a specified interval (here: terminal t1/2, in hrs).

human PGD receptor = biological target: T1, human PGD receptor (Homo sapiens, UniProt Q13258); assay: cAMP antagonism test on the human prostaglandin D receptor (HTRF cAMP detection); type: cell-based; conditions: selectivity towards hDP, IC50 measured by cAMP antagonism test
T1 sequence (Q13258 1-359): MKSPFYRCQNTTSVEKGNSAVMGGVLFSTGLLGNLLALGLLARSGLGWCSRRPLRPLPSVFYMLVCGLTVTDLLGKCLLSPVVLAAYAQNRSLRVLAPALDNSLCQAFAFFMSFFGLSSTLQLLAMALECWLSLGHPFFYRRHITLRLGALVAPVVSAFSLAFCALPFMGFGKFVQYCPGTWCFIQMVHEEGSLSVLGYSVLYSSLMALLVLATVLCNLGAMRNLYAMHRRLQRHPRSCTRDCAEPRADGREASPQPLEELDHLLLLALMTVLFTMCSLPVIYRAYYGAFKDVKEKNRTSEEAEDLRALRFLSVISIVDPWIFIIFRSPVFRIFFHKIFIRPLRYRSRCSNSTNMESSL
Method in brief: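 HTRF competition read-out (665/620 nm ratio ×10000), where higher FRET means less cAMP, i.e. antagonism. Compounds (0.8 nM–16.5 μM) were preincubated 20 min at RT with cells and cAMP-d2, PGD2 (3× solution, 6 nM) in IBMX-containing PBS added for 30 min at RT, then cells lysed 20 min.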

[2] = test system: ovulated cumulus-oocyte complexes; assay: In-vivo action on post-ovulatory in-vitro fertilization; design: species or system mice (strain: B6D2F1); conditions: mice
From the text: 4.3 In-Vivo Action on Post-Ovulatory In-Vitro Fertilization: Substances can exert an influence on fertility by decreasing the fertilizability of oocytes or cumulus-oocyte complexes. In order to study such effects, substances can be administered in vivo and subjected to in vitro fertilization after ovulation of cumulus-oocyte complexes has taken place. The in-vitro fertilization rate, where no test substance is any longer present, allows conclusions as to the in-vivo effects of the test substances. Immature female mice (strain: B6D2F1, Charles River, Suelzfeld, age: 19-25 days) were kept in Macrolon cages in rooms with controlled illumination (12 hrs darkness: 12 hrs light), fed with a standard diet and provided with drinking water ad libitum. The mice were primed with PMSG (pregnant mare serum gonadotropin) (10 IU/animal i.p.). After 48 hours, a stimulus triggering ovulation was created in the animals by one administration of 10 IU/animal i.p. (hCG, human chorionic gonadotropin). The test substances were dissolved in benzyl benzoate/castor oil (1+4 v/v) and administered in a volume of 0.1 ml s.c. 1 hour before hCG (n=5 animals per group). Fourteen hours after hCG administration, the animals were killed. Ovulated oocytes and cumulus-oocyte complexes were obtained from the bursa ovarii and/or oviduct and subjected to in-vitro fertilization, wherein for the fertilization a sperm count of 40000 sperms/0.5 ml was used for 1 hour. Twenty-four hours after the incubation with the sperms, the number of fertilized oocytes is established and the percentage fertilization rate determined.

[3] = after intravenous administration in the female rat, read-out: Terminal half-life t1/2 (converted)

Row | Compound | half-life [1, 3] [min] | Selectivity hEP2/hDP (human PGD receptor) | % fertilization with 1 mg/kg ([2]; 1 mg/kg s.c. 1 hour before hCG, in-vitro fertilization rate) [%] | % fertilization with 5 mg/kg ([2]; 5 mg/kg s.c. 1 hour before hCG, in-vitro fertilization rate) [%] | % fertilization with 10 mg/kg ([2]; 10 mg/kg s.c. 1 hour before hCG, in-vitro fertilization rate) [%] | influence on the fertilizability of ovulated cumulus-oocyte complexes ([2]; in-vivo administration) | Terminal half-life t1/2 ([1]; after intravenous administration in the female rat) [h] | half-life ([1]; intravenous administration, female rat, read-out: terminal half-life t1/2 (converted)) [min]
1 | COCCNC(=O)c1ccc2nn(CC3CCN(C(=O)c4ccc(-c5ccc(F)cc5)cc4F)CC3)cc2c1C [Example 42, 2-({1-[(3,4′-difluoro-biphenyl-4-yl)-carbonyl]piperidin-4-yl}methyl)-N-(2-methoxyethyl)-4-methyl-2H-indazol-5-carboxamide] | 192 | xxx (xxx > 100) |  |  |  |  |  | 
2 | COCCNC(=O)c1ccc2nn(CC3CCN(C(=O)c4ccc(Oc5ccc(C(F)(F)F)cc5)cc4)CC3)cc2c1C [Example 17, N-(2-methoxyethyl)-4-methyl-2-[(1-{4-[4-(trifluoromethyl)-phenoxy]benzoyl}-piperidin-4-yl)-methyl]-2H-indazol-5-carboxamide] |  | xxx (xxx > 100) | 20 ± 10 | 9 ± 1 | 8 ± 4 | dose-dependent influence | 2.5 | 150
3 | Cc1c(C(=O)NCC(F)(F)F)ccc2nn(CC3CCN(C(=O)c4ccc(Oc5ccc(F)cc5)cc4)CC3)cc12 [Example 283, 2-({1-[4-(4-fluorophenoxy)benzoyl]piperidin-4-yl}methyl)-4-methyl-N-(2,2,2-trifluoroethyl)-2H-indazol-5-carboxamide] | 348 | xxx (xxx > 100) |  |  |  |  |  | 
4 | COCCNC(=O)c1ccc2nn(CC3CN(C(=O)c4ccc(Cl)cc4)C3)cc2c1C [Example 117, 2-{[1-(4-chlorobenzoyl)azetidin-3-yl]methyl}-N-(2-methoxyethyl)-4-methyl-2H-indazol-5-carboxamide] | 120 | xxx (xxx > 100) |  |  |  |  |  | 

— US9062041B2 (Bayer Intellectual Property GmbH, priority 2011, dated 2015)
